Data reported in the NIST ThermoML archive (doi:10.1021/je0604481).

Test: mn = molality of the nth substance listed, in mol/kg
Settings: Liquid; for mass density: Constant-volume piezometry; for viscosity: Capillary tube (Ostwald / Ubbelohde) method

O=S(=O)([O-])[O-].[Mg+2] [magnesium sulfate] + O
Settings	mass density [kg/m3]	viscosity [mPa·s]
288.57 K, 101 kPa, m1 = 2.224	1235.34	–
288.57 K, 101 kPa, m1 = 2.535	1263.36	–
291.15 K, 101 kPa, m1 = 0.084	1008.8	–
297.7 K, 101 kPa, m1 = 2.224	1231.87	–
297.7 K, 101 kPa, m1 = 2.535	1259.83	–
298.15 K, 100 kPa, m1 = 0.085	–	0.9407
298.15 K, 100 kPa, m1 = 0.255	–	1.055
298.15 K, 100 kPa, m1 = 0.437	–	1.184
298.15 K, 100 kPa, m1 = 0.722	–	1.442
298.15 K, 100 kPa, m1 = 0.923	–	1.651
298.15 K, 100 kPa, m1 = 1.824	–	3.137
298.15 K, 100 kPa, m1 = 2.291	–	4.414
298.15 K, 100 kPa, m1 = 2.623	–	5.789
298.15 K, 10000 kPa, m1 = 0.085	–	0.94
298.15 K, 10000 kPa, m1 = 0.255	–	1.054
298.15 K, 10000 kPa, m1 = 0.437	–	1.184
298.15 K, 10000 kPa, m1 = 0.722	–	1.443
298.15 K, 10000 kPa, m1 = 0.923	–	1.653
298.15 K, 10000 kPa, m1 = 1.824	–	3.138
298.15 K, 10000 kPa, m1 = 2.291	–	4.415
298.15 K, 10000 kPa, m1 = 2.623	–	5.79
298.15 K, 30000 kPa, m1 = 0.085	–	0.9415
298.15 K, 30000 kPa, m1 = 0.255	–	1.056
298.15 K, 30000 kPa, m1 = 0.437	–	1.185
298.15 K, 30000 kPa, m1 = 0.722	–	1.445
298.15 K, 30000 kPa, m1 = 0.923	–	1.655
298.15 K, 30000 kPa, m1 = 1.824	–	3.14
298.15 K, 30000 kPa, m1 = 2.291	–	4.417
298.15 K, 30000 kPa, m1 = 2.623	–	5.792
299.67 K, 2040 kPa, m1 = 2.224	1231.7	–
299.67 K, 7179 kPa, m1 = 2.224	1233.3	–
299.67 K, 16830 kPa, m1 = 2.224	1236.3	–
299.67 K, 22550 kPa, m1 = 2.224	1238.2	–
299.67 K, 29600 kPa, m1 = 2.224	1240.3	–
303.03 K, 101 kPa, m1 = 0.469	1050.08	–
303.15 K, 101 kPa, m1 = 0.841	1090.98	–
308.15 K, 100 kPa, m1 = 0.085	–	0.761
308.15 K, 100 kPa, m1 = 0.255	–	0.8459
308.15 K, 100 kPa, m1 = 0.437	–	0.9437
308.15 K, 100 kPa, m1 = 0.722	–	1.151
308.15 K, 100 kPa, m1 = 0.923	–	1.305
308.15 K, 100 kPa, m1 = 1.824	–	2.415
308.15 K, 100 kPa, m1 = 2.291	–	3.374
308.15 K, 100 kPa, m1 = 2.623	–	4.352
308.15 K, 10000 kPa, m1 = 0.085	–	0.7618
308.15 K, 10000 kPa, m1 = 0.255	–	0.8466
308.15 K, 10000 kPa, m1 = 0.437	–	0.946
308.15 K, 10000 kPa, m1 = 0.722	–	1.153
308.15 K, 10000 kPa, m1 = 0.923	–	1.305
308.15 K, 10000 kPa, m1 = 1.824	–	2.418
308.15 K, 10000 kPa, m1 = 2.291	–	3.376
308.15 K, 10000 kPa, m1 = 2.623	–	4.355
308.15 K, 30000 kPa, m1 = 0.085	–	0.7645
308.15 K, 30000 kPa, m1 = 0.255	–	0.8495
308.15 K, 30000 kPa, m1 = 0.437	–	0.9486
308.15 K, 30000 kPa, m1 = 0.722	–	1.156
308.15 K, 30000 kPa, m1 = 0.923	–	1.309
308.15 K, 30000 kPa, m1 = 1.824	–	2.422
308.15 K, 30000 kPa, m1 = 2.291	–	3.348
308.15 K, 30000 kPa, m1 = 2.623	–	4.364
308.6 K, 101 kPa, m1 = 0.261	1024.48	–
310.15 K, 101 kPa, m1 = 2.224	1226.56	–
310.15 K, 101 kPa, m1 = 2.535	1254.38	–
314.98 K, 2157 kPa, m1 = 2.535	1252.7	–
314.98 K, 8159 kPa, m1 = 2.535	1254.5	–
314.98 K, 15690 kPa, m1 = 2.535	1256.7	–
314.98 K, 25910 kPa, m1 = 2.535	1259.9	–
314.98 K, 29800 kPa, m1 = 2.535	1261	–
323.05 K, 2197 kPa, m1 = 2.224	1221.5	–
323.05 K, 10120 kPa, m1 = 2.224	1224	–
323.05 K, 19850 kPa, m1 = 2.224	1227	–
323.05 K, 26300 kPa, m1 = 2.224	1229.1	–
323.05 K, 30500 kPa, m1 = 2.224	1230.3	–
323.15 K, 100 kPa, m1 = 0.085	–	0.5785
323.15 K, 100 kPa, m1 = 0.255	–	0.6403
323.15 K, 100 kPa, m1 = 0.437	–	0.7163
323.15 K, 100 kPa, m1 = 0.722	–	0.8612
323.15 K, 100 kPa, m1 = 0.923	–	0.9738
323.15 K, 100 kPa, m1 = 1.824	–	1.744
323.15 K, 100 kPa, m1 = 2.291	–	2.373
323.15 K, 100 kPa, m1 = 2.623	–	2.997
323.15 K, 101 kPa, m1 = 0.084	998.05	–
323.15 K, 101 kPa, m1 = 0.261	1018.3	–
323.15 K, 101 kPa, m1 = 0.469	1041.45	–
323.15 K, 101 kPa, m1 = 0.841	1082.67	–
323.15 K, 10000 kPa, m1 = 0.085	–	0.5809
323.15 K, 10000 kPa, m1 = 0.255	–	0.6431
323.15 K, 10000 kPa, m1 = 0.437	–	0.7198
323.15 K, 10000 kPa, m1 = 0.722	–	0.8651
323.15 K, 10000 kPa, m1 = 0.923	–	0.9781
323.15 K, 10000 kPa, m1 = 1.824	–	1.751
323.15 K, 10000 kPa, m1 = 2.291	–	2.382
323.15 K, 10000 kPa, m1 = 2.623	–	3.009
323.15 K, 30000 kPa, m1 = 0.085	–	0.5856
323.15 K, 30000 kPa, m1 = 0.255	–	0.648
323.15 K, 30000 kPa, m1 = 0.437	–	0.7256
323.15 K, 30000 kPa, m1 = 0.722	–	0.8714
323.15 K, 30000 kPa, m1 = 0.923	–	0.9853
323.15 K, 30000 kPa, m1 = 1.824	–	1.764
323.15 K, 30000 kPa, m1 = 2.291	–	2.4
323.15 K, 30000 kPa, m1 = 2.623	–	3.031
324.35 K, 101 kPa, m1 = 2.224	1219.96	–
324.35 K, 101 kPa, m1 = 2.535	1247.46	–
340.25 K, 101 kPa, m1 = 2.224	1211.6	–
340.25 K, 101 kPa, m1 = 2.535	1238.93	–
348.13 K, 1549 kPa, m1 = 2.535	1235.1	–
348.13 K, 9807 kPa, m1 = 2.535	1237.7	–
348.13 K, 14220 kPa, m1 = 2.535	1238.9	–
348.13 K, 23810 kPa, m1 = 2.535	1241.9	–
348.13 K, 30020 kPa, m1 = 2.535	1243.8	–
348.15 K, 100 kPa, m1 = 0.437	–	0.491
